Results: patent publication US20220281825A1 (priority 2016, published 2022)

Legend:
[1] = 1 h, pH 7.4
[2] = 1 h, pH 7.4; remark: listed apart in the source
[3] = 1 h, pH 7.4; remark: listed apart in the source
[4] = 1 h, pH 7.4; remark: listed apart in the source
in vivo = details: guinea pig, po, 10 mg/kg
[5] = guinea pig, 1 h, pH 7.4
MACV-p = assay: organism not typed; type: cell-based, Machupo (MACV); details: Vero, 24 h, read-out: MACV-p EC50 (nM)
JUNV = assay: organism not typed; type: cell-based, Junin (JUNV); details: for EC50: 120 h, read-out: JUNV EC50 uM
in vitro = details: African green monkey
TCRV-p = assay: organism not typed; type: cell-based; details: Vero, 24 h, read-out: TCRV-p EC50 (nM)
[6] = system: native replicating Tacaribe (TCRV) virus; assay: microbe, parasite or virus in culture; type: cell-based; details: for EC50: Mammarenavirus tacaribeense, Vero, 120 h, read-out: TCRV EC50 uM
VSV-p = assay: microbe, parasite or virus in culture; type: cell-based; details: Vesicular stomatitis virus, Vero, 24 h, read-out: VSV-p EC50 (nM)
GTOV-p = assay: organism not typed; type: cell-based, Guanarito (GTOV); details: Vero, 24 h, read-out: GTOV-p EC50 (nM)
[7] = guinea pig, in vivo, 10 mg/kg
LASV-p = assay: organism not typed; type: cell-based, Lassa (LASV); details: Vero, 24 h, read-out: LASV-p EC50 (nM)
LCMV = assay: microbe, parasite or virus in culture; type: cell-based, lymphocytic choriomeningitis virus (LCMV); details: for EC90: Mammarenavirus choriomeningitidis, read-out: LCMV EC90 uM
JUNV-p = assay: organism not typed; type: cell-based, Junin (JUNV); details: Vero, 24 h, read-out: JUNV-p EC50 (nM)
LASV = assay: organism not typed; type: cell-based, Lassa (LASV); details: for EC50: 120 h, read-out: LASV EC50 uM
hERG channel = hERG channel (Homo sapiens, UniProt Q12809); details: pH 7.4
hERG channel, sequence (Q12809 whole entry): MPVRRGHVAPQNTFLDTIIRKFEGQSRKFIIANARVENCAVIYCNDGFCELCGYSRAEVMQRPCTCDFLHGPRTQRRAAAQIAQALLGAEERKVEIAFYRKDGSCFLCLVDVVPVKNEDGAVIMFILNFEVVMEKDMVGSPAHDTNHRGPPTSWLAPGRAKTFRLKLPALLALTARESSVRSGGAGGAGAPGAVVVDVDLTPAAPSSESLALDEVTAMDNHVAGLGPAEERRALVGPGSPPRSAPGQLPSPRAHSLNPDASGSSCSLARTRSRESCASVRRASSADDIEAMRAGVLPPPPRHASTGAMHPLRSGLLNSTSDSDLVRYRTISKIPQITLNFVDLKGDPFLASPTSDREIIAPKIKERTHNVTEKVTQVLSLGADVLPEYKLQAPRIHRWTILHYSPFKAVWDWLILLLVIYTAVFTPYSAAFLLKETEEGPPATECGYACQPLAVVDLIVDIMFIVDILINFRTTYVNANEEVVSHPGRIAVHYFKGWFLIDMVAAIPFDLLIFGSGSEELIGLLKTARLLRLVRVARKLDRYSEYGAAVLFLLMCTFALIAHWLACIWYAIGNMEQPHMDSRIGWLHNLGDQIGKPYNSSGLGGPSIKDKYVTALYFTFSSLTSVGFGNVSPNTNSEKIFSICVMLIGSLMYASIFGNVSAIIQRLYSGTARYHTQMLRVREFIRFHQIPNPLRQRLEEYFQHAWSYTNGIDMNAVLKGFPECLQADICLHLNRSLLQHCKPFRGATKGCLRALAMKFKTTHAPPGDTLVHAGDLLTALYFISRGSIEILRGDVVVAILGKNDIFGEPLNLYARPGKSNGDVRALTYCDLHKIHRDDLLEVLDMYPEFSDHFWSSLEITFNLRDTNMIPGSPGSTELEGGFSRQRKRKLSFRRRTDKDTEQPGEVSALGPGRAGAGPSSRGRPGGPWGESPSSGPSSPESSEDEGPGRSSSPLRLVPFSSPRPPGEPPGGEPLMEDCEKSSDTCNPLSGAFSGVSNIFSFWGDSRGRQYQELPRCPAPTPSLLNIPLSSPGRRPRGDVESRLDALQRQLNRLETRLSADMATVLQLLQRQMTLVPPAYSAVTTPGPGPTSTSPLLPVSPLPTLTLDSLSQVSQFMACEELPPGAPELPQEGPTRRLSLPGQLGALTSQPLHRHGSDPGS

[8] = 1 h, pH 7.4; remark: listed apart in the source

Compound	Percent parent compound remaining at 60 minutes in liver microsomes, Mouse [1] [%]	Percent parent compound remaining at 60 minutes in liver microsomes, Rat [2] [%]	Percent parent compound remaining at 60 minutes in liver microsomes, Human [3] [%]	Percent parent compound remaining at 60 minutes in liver microsomes, Monkey [4] [%]	Percent parent compound remaining at 60 minutes in liver microsomes, Guinea [5] [%]	EC50 (MACV-p) [nM]	JUNV SI (JUNV)	EC50 (JUNV) [µM]	CC50 (in vitro) [nM]	EC50 (TCRV-p) [nM]	TCRV SI50 [6]	EC50 [6] [µM]	EC50 (VSV-p) [nM]	EC50 (GTOV-p) [nM]	EC50 (LASV-p) [nM]	LCMV SI90 (LCMV)	EC90 (LCMV) [µM]	EC50 (JUNV-p) [nM]	LASV SI (LASV)	hERG % Inhibition (hERG channel) [%]	also measured
CC(C)Oc1ccc(-n2cnc3ccc(-c4ccc(C(C)(C)O)cc4)cc32)cc1 [Example A17, 2-(4-{1-[4-(propan-2-yloxy)phenyl]-1H-1,3-benzodiazol-6-yl}phenyl)propan-2-ol]	44	86	69	7	62	0.2	82	0.115	5810	0.6	609	0.023	> 1000	0.52	1.1	12	0.71	0.2	249		Cmax (in vivo): 639 ng/mL; Tmax (in vivo): 1 h; half-life (in vivo): 4 to 6 h; oral exposure [7]: demonstrated oral exposure; T ½ ([7]; po): 4 to 6 h; EC50 (LASV): 0.06 µM
CC(C)Oc1ccc(-n2cnc3ccc(-c4ccc5[nH]ccc5c4)cc32)cc1 [Example A24, 6-(1H-indol-5-yl)-1-[4-(propan-2-yloxy)phenyl]-1H-1,3-benzodiazole]		32	63		0	3.7	53	0.56	71300	15.9	7100	0.01		0.3	0.91	18	0.56	1.7	527		EC50 (LASV): 0.06 µM
Cc1cc2ncn(-c3ccc(OC(C)C)cc3)c2cc1-c1ccc(OC(C)C)cc1 [Example A30, 5-methyl-1,6-bis[4-(propan-2-yloxy)phenyl]-1H-1,3-benzodiazole]						0.21			3670	0.07			5310	0.21	0.53			0.03		<10	
COc1cc2ncn(-c3ccc(OC(C)C)cc3)c2cc1-c1ccc(OC(C)C)cc1 [Example A31, 5-methoxy-1,6-bis[4-(propan-2-yloxy)phenyl]-1H-1,3-benzodiazole]			93	40	100	0.9			3790	0.7					2.6			0.18		<10	
Cc1cc2nnn(-c3ccc(OC(C)C)cc3)c2cc1-c1ccc(OC(C)C)cc1 [Example B15, 5-methyl-1,6-bis[4-(propan-2-yloxy)phenyl]-1H-1,2,3-benzotriazole]						0.25			> 100000	0.37			> 10000	0.18	0.95			0.02		<10	
CC(C)Oc1ccc(-c2cnc3ccc(-c4ccc(C(C)(C)O)cc4)cn23)cc1 [Example C1, 2-(4-{3-[4-(propan-2-yloxy)phenyl]imidazo[1,2-a]pyridin-6-yl}phenyl)propan-2-ol]	22	77	76	16	42	0.7	352	0.055	7520	1.45	2500	0.003	> 1000	0.08	0.59	37	0.82	0.82	921	55	EC50 (LASV): 0.025 µM
CC(C)Oc1ccc(-c2ccc3ncc(-c4ccc(OC(C)C)cc4)n3c2)cc1 [Example C2, 3,6-bis[4-(propan-2-yloxy)phenyl]imidazo[1,2-a]pyridine]																				89	Cmax (in vivo): 156 ng/mL; Tmax (in vivo): 1 h; oral exposure [7]: demonstrated oral exposure
Cc1c(-c2ccc(OC(C)C)cc2)ccc2ncc(-c3ccc(OC(C)C)cc3)n12 [Example C51, 5-methyl-3,6-bis[4-(propan-2-yloxy)phenyl]imidazo[1,2-a]pyridine]	92	75	100	21	95	0.13			4190	0.37				0.21	0.31			0.15		49	Percent parent compound remaining at 60 minutes in liver microsomes, Dog [8]: 82%
